Legend:
[1] = tested on: RCC reactive SAUJ T-cell clone; experiment: ELISA of IFN-gamma production by RCC reactive CTL co-cultured with peptide-pulsed COS7-A11 cells; type: cell-based, human
Description: COS7-A11 cells were pulsed with varying concentrations of each peptide then screened for their ability to induce IFN-gamma production by RCC reactive CTL. The 10 mer Pep-A104-K133 (ATFLGSLTWK) (SEQ ID NO: 1) induced dose dependent IFN-gamma production first evident in the 1 nM concentration range consistent with this peptide being the antigenic HLA-A11 restricted antigen recognized by the RCC reactive SAUJ T-cell clone.
Cultured T-cell lines or T cell clones were added to target cells in round-bottom 96-well plates. After 24 hours co culture at 37° C., 50 μL of supernatants was collected to measure IFN-g or GM-CSF secretion by ELISA (ENDOGEN, Woburn, Mass.) in duplicate assays. The concentration of reagents and the ELISA procedure recommended by ENDOGEN was followed without deviation. Absorbance was detected at 450 nm using an ELISA reader (VICTOR3 Multilabel counter; Perkin Elmer, Wellesley, Mass.) and data were calculated based on the standard curve generated from commercial recombinant human IFN-g or GM-CSF standards (ENDOGEN).
A total of 8 peptides (three 9-mers and five 10-mers) from the common sequence of CT-RCC 8 and CT-RCC 9 were synthesized and purchased from Genemed Synthesis, Inc. The identity and purity of each of the peptides were confirmed by mass spectrometer and high-performance liquid chromatography analysis. […]

HLA A-11 = experiment: Binding of epitope to HLA A-11; set-up: species or system human; conditions: compared with the other epitopes

## ATFLGSLTWK [Pep-A104-K133, HLA-A11-restricted 10-mer peptide from the common region of CT-RCC 8 and CT-RCC 9]
[1]; COS7-A11 cells pulsed with varying peptide concentrations (0.1 to 10000 nM), SAUJ-CTL clone BZ-4
  concentration range at which dose dependent IFN-gamma production is first evident: ~1 nM
[1]; compared with the other epitopes
  level of IFN-γ secretion by human T cells: highest level of IFN-γ secretion
HLA A-11
  level of binding the HLA A-11: highest level of binding

Reference: US10557118B2, “Compositions and methods for prevention or treatment of neoplastic disease in a mammalian subject” (The Government of the USA, as represented by the Secretary, …, priority 2006, dated 2020)
